From article PMC6462224 (Nature chemical biology, 2018)

Target: T1, M2R(S110R)_delta_ICL3 (Homo sapiens, UniProt P08172, DEL233-359/S110R)
T1 sequence (P08172 with tags, fused parts or gaps S110R/DEL233-359): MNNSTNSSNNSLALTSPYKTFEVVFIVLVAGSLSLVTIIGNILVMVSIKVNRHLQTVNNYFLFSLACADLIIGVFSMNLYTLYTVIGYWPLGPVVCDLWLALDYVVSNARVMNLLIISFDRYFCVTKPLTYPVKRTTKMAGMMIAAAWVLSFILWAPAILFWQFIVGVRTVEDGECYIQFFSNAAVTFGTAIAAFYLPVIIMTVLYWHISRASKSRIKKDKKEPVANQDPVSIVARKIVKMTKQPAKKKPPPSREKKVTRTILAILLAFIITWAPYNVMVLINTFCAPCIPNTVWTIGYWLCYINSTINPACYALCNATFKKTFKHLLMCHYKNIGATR
Assay: Inhibition of [3H]NMS binding to M2R
Conditions: S110R vs wild type, Fig. 2e

C[N+](C)(C)CC#CCOC1=NOCC1 [Iperoxo]
reduction of affinity in S110R mutant relative to the wild type: ~1000 fold
